Assay results published in ChEMBL document CHEMBL1770111, “A series of structurally simple chloroquine chemosensitizing dibemethin derivatives that inhibit chloroquine transport by PfCRT” (Eur J Med Chem, 2011).
pIC50: −log10 of the molar value. Activity calls are given as the source filed them. No cut-off for these calls is given here.

How the values were obtained:
Plasmodium falciparum [1] = experiment: Antiplasmodial activity against chloroquine-resistant Plasmodium falciparum W2 by parasite lactate dehydrogenase assay; assay type: functional, organism-based
Plasmodium falciparum [2] = experiment: Resistance modification index, ratio of IC50 for chloroquine in presence of compound to IC50 for chloroquine alone for chloroquine-resistant Plasmodium falciparum W2; assay type: functional
Plasmodium falciparum [3] = experiment: Resistance modification index, ratio of compound IC10 to chloroquine IC50 in presence of IC10 compound for chloroquine-resistant Plasmodium falciparum W2; assay type: functional
Plasmodium falciparum [4] = experiment: Inhibition of chloroquine-resistant Plasmodium falciparum […] CRT expressed in Xenopus laevis oocytes assessed as [3H]-chloroquine uptake after 1 to 2 hrs; settings: Oocyte
Plasmodium falciparum [5] = experiment: Antiplasmodial activity against chloroquine-resistant Plasmodium falciparum W2 at 15.2 uM by parasite lactate dehydrogenase assay; assay type: functional, organism-based

Compound | IC10 (Plasmodium falciparum [1]) | pIC50 (Plasmodium falciparum [1]) | Ratio IC50 (Plasmodium falciparum [2]) | Ratio IC50 (Plasmodium falciparum [3]) | pIC50 (Plasmodium falciparum [4]; read-out: IC50) | pIC50 (Plasmodium falciparum [4]) | inhibition (Plasmodium falciparum [5])
CN(Cc1ccccc1)Cc1ccc(CNC=O)cc1 | 18 µM | 4.25 | 1.13 | 0.43 |  |  | 
COc1ccc(CN(C)Cc2ccc(CNC=O)cc2)cc1 | 16 µM | 4.43 | 1.22 | 0.46 |  |  | 
CN(Cc1ccccc1)Cc1ccccc1CNC=O | 1.7 µM | 4.96 | 0.75 | 0.44 |  |  | 
CN(Cc1ccc(Cl)cc1)Cc1ccccc1CN |  | 5.24 | 0.096 |  |  |  | 
CN(Cc1ccc(N(C)C)cc1)Cc1ccccc1CNC=O | 15 µM | 4.38 | 1 | 0.49 |  |  | 
COc1ccc(CN(C)Cc2ccc(CN)cc2)cc1 |  | 4.04 | 0.33 |  |  |  | 
CN(Cc1ccc(N(C)C)cc1)Cc1cccc(CN)c1 |  | 4.52 | 0.24 |  |  |  | 
CN(Cc1ccccc1)Cc1ccccc1CN |  | 5.39 | 0.03 |  | 4.62 |  | 
COc1ccc(CCN(C)CCCC(C#N)(c2ccc(OC)c(OC)c2)C(C)C)cc1OC (configuration not stated) [VERAPAMIL] |  |  | 0.26 |  |  | 4.52 | 
CN(Cc1ccc(Cl)cc1)Cc1ccc(CN)cc1 |  | 4.20 | 0.25 |  | 3.85 |  | 
COc1ccc(CN(C)Cc2ccccc2CN)cc1 |  | < 3.63 | 0.35 |  |  |  | 
CN(Cc1ccc(Cl)cc1)Cc1ccc(CNC=O)cc1 | 5.4 µM | 4.54 | 0.9 | 0.46 |  |  | 
COc1ccc(CN(C)Cc2cccc(CNC=O)c2)cc1 | 9 µM | 4.32 | 1.19 | 0.51 |  |  | 
CN(Cc1ccccc1)Cc1ccc(CN)cc1 |  | 4.54 | 0.24 |  |  |  | 
COc1ccc(CN(C)Cc2cccc(CN)c2)cc1 |  | 5.17 | 0.25 |  |  |  | 
CN(Cc1ccc(Cl)cc1)Cc1ccccc1CNC=O | 12 µM | 3.92 | 1.07 | 0.34 |  |  | 
CN(Cc1ccc(N(C)C)cc1)Cc1cccc(CNC=O)c1 |  | 4.77 | 0.62 | 1 |  |  | inactive
COc1ccc(CN(C)Cc2ccccc2CNC=O)cc1 | 12 µM | 4.54 | 1.22 | 0.32 |  |  | 
CN(Cc1ccccc1)Cc1cccc(CNC=O)c1 | 9.7 µM | 4.68 | 0.84 | 0.29 |  |  | 
CN(Cc1ccc(CNC=O)cc1)Cc1ccc(N(C)C)cc1 | 15.2 µM | 4.48 | 1.36 | 0.46 | 3.18 |  | 
CN(Cc1ccc(CN)cc1)Cc1ccc(N(C)C)cc1 |  | 4.93 | 0.21 |  |  |  | 
CN(Cc1ccccc1)Cc1cccc(CN)c1 |  | 5.55 | 0.08 |  |  |  | 
CN(Cc1ccc(Cl)cc1)Cc1cccc(CNC=O)c1 | 4 µM | 4.80 |  | 0.51 |  |  | 
CN(Cc1ccc(Cl)cc1)Cc1cccc(CN)c1 |  | 4.52 | 0.31 |  | 4.00 |  | 
CN(Cc1ccc(N(C)C)cc1)Cc1ccccc1CN |  | 4.43 | 0.36 |  |  |  | 
